Patent publication US20040086901A1, “Database for analyzing gene function and method of analyzing gene function by dspa” (priority 2000, published 2004)
Non-standard residues stand in square brackets, D forms with d. Residues, ends and D or L forms follow the SMILES beside them. Nle = CCCC[C@H](N)C(=O)O

Key:
Format in all cases: cell-based, mouse
[1] = system: NIH3T3 cells overexpressing v-src; assay: MTT cell viability, v-src overexpressing cells vs parental line; conditions: v-src high-expressing cells / parental cell line, 3 to 4 days
Outline: (§1)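 Stable NIH3T3 transfectants (cDNA in pRc-CMV-type vector, G-418-selected, high expressers picked by Western blot) and parental cells were seeded at 1×10^5 cells/ml into twofold serial drug dilutions and grown 3–4 days. MTT formazan was read at 574/655 nm, and log ratios of IC40 values were derived.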

[2] = system: NIH3T3 cells overexpressing erbB2; assay: MTT cell viability, erbB2 overexpressing cells vs parental line; conditions: erbB2 high-expressing cells / parental cell line, 3 to 4 days
Outline: as §1

[3] = system: NIH3T3 cells overexpressing m-calpain; assay: MTT cell viability, m-calpain overexpressing cells vs parental line; conditions: m-calpain high-expressing cells / parental cell line, 3 to 4 days
Outline: (§2)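 Drugs were serially diluted twofold across nine wells. Cells were then added from a suspension of 1×10^5 cells/ml and cultured for 3 to 4 days. After a 4 h MTT incubation at 37 °C and acid-isopropanol solubilisation, formazan was measured at 574 nm and IC40 ratios were derived.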

[4] = system: NIH3T3 cells overexpressing cAMP-PK-CS; assay: MTT cell viability, cAMP-PK-CS overexpressing cells vs parental line; conditions: cAMP-PK-CS high-expressing cells / parental cell line, 3 to 4 days
Outline: as §2

[5] = system: NIH3T3 cells overexpressing CP-antisense; assay: MTT cell viability, CP-antisense cells vs parental line; conditions: 3 to 4 days
Outline: as §1

[6] = system: NIH3T3 cells overexpressing DAN; assay: MTT cell viability, DAN overexpressing cells vs parental line; conditions: DAN high-expressing cells / parental cell line, 3 to 4 days
Outline: as §1

[7] = system: NIH3T3 cells overexpressing cystatin E; assay: MTT cell viability, cystatin E overexpressing cells vs parental line; conditions: cystatin E high-expressing cells / parental cell line, 3 to 4 days
Outline: as §1

[8] = system: NIH3T3 cells overexpressing caspase-1; assay: MTT cell viability, caspase-1 overexpressing cells vs parental line; conditions: caspase-1 high-expressing cells / parental cell line, 3 to 4 days
Outline: as §2

[9] = system: NIH3T3 cells overexpressing RhoA; assay: MTT cell viability, RhoA overexpressing cells vs parental line; conditions: RhoA high-expressing cells / parental cell line, 3 to 4 days
Outline: as §1

[10] = system: NIH3T3 cells overexpressing PDGF-R; assay: MTT cell viability, PDGF-R overexpressing cells vs parental line; conditions: PDGF-R high-expressing cells / parental cell line, 3 to 4 days
Outline: as §1

[11] = system: NIH3T3 cells overexpressing CBP8; assay: MTT cell viability, CBP8 overexpressing cells vs parental line; conditions: CBP8 high-expressing cells / parental cell line, 3 to 4 days
Outline: as §1

[12] = system: NIH3T3 cells overexpressing PKCalpha-KN; assay: MTT cell viability, PKCalpha-KN overexpressing cells vs parental line; conditions: 3 to 4 days
Outline: as §2

[13] = system: NIH3T3 cells overexpressing PKCepsilon-KN; assay: MTT cell viability, PKCepsilon-KN overexpressing cells vs parental line; conditions: 3 to 4 days
Outline: as §2

[14] = system: NIH3T3 cells, TPA (PKC downreg); assay: MTT cell viability, TPA (PKC downreg) cells vs parental line; conditions: 3 to 4 days
[15] = system: NIH3T3 cells overexpressing p38-DN; assay: MTT cell viability, p38-DN overexpressing cells vs parental line; conditions: p38-DN high-expressing cells / parental cell line, 3 to 4 days
Outline: as §2

[16] = system: NIH3T3 cells overexpressing HSP4O; assay: MTT cell viability, HSP4O overexpressing cells vs parental line; conditions: HSP4O high-expressing cells / parental cell line, 3 to 4 days
Outline: as §1

[17] = system: NIH3T3 cells overexpressing CaMKIIa; assay: MTT cell viability, CaMKIIa overexpressing cells vs parental line; conditions: CaMKIIa high-expressing cells / parental cell line, 3 to 4 days
Outline: as §2

[18] = system: NIH3T3 cells overexpressing HNF1; assay: MTT cell viability, HNF1 overexpressing cells vs parental line; conditions: HNF1 high-expressing cells / parental cell line, 3 to 4 days
Outline: as §2

[19] = system: NIH3T3 cells overexpressing HNF3b; assay: MTT cell viability, HNF3b overexpressing cells vs parental line; conditions: HNF3b high-expressing cells / parental cell line, 3 to 4 days
Outline: as §2

[20] = system: NIH3T3 cells overexpressing HNF4; assay: MTT cell viability, HNF4 overexpressing cells vs parental line; conditions: HNF4 high-expressing cells / parental cell line, 3 to 4 days
Outline: as §2

[21] = PKCalpha-KN (first of two lines) high-expressing cells / parental cell line
[22] = PKCalpha-KN (second of two lines) high-expressing cells / parental cell line
[23] = PKCepsilon-KN (first of two lines) high-expressing cells / parental cell line
[24] = PKCepsilon-KN (second of two lines) high-expressing cells / parental cell line

| SMILES | logarithmic value of ratio of IC40 values [1] | logarithmic value of ratio of IC40 values [2] | logarithmic value of ratio of IC40 values [3] | logarithmic value of ratio of IC40 values [4] | logarithmic value of ratio of IC40 values [5] | logarithmic value of ratio of IC40 values [6] | logarithmic value of ratio of IC40 values [7] | logarithmic value of ratio of IC40 values [8] | logarithmic value of ratio of IC40 values [9] | logarithmic value of ratio of IC40 values [10] | logarithmic value of ratio of IC40 values [11] | logarithmic value of ratio of IC40 values [12, 21] | logarithmic value of ratio of IC40 values [12, 22] | logarithmic value of ratio of IC40 values [13, 23] | logarithmic value of ratio of IC40 values [13, 24] | logarithmic value of ratio of IC40 values [14] | logarithmic value of ratio of IC40 values [15] | logarithmic value of ratio of IC40 values [16] | logarithmic value of ratio of IC40 values [17] | logarithmic value of ratio of IC40 values [18] | also measured |
| --- | --- | --- | --- | --- | --- | --- | --- | --- | --- | --- | --- | --- | --- | --- | --- | --- | --- | --- | --- | --- | --- |
| CCCC[C@@H](C=O)NC(=O)[C@H](CC(C)C)NC(=O)[C@H](CC(C)C)NC(C)=O [ALLN] (Ac-Leu-Leu-[Nle]-aldehyde) | 0.10 | −0.05 | 0.00 | 0.20 | 0.00 | 0.00 | 0.19 | −0.04 | 0.00 | 0.22 | 0.11 | 0.11 | −0.01 | 0.07 | 0.19 | −0.09 | 0.04 | 0.18 | 0.00 | 0.16 | logarithmic value of ratio of IC40 values [19]: 0.28; logarithmic value of ratio of IC40 values [20]: −0.15 |
| CO[C@H]1[C@@H](OC)C[C@H](C)[C@@H](OC)C2=CC(=O)C=C(NC(=O)/C(C)=C/C=C\[C@H](OC)[C@@H](OC(N)=O)/C(C)=C/[C@@H]1C)C2=O [HMA, herbimycin A] | −0.35 | −0.55 | 0.00 | 0.12 | −0.10 | −0.05 | 0.00 | 0.00 | 0.13 | 0.19 | 0.09 | 0.09 | −0.10 | −0.11 | 0.09 | −0.07 | −0.05 | 0.00 | 0.00 | 0.161 | logarithmic value of ratio of IC40 values [19]: −0.18; logarithmic value of ratio of IC40 values [20]: −0.08 |
| CC(=O)OCOC(=O)CN(CC(=O)OCOC(C)=O)c1ccccc1OCCOc1ccccc1N(CC(=O)OCOC(C)=O)CC(=O)OCOC(C)=O [BAPTA-AM] | −0.22 | −0.40 | 0.00 | −0.10 | 0.06 | 0.70 | −0.02 | 0.60 | 0.00 | 0.29 | 0.00 | 0.43 | −0.42 | 0.00 | 0.00 | −0.03 | 0.00 | 0.05 | −0.12 | 0.20 | logarithmic value of ratio of IC40 values [19]: −0.07; logarithmic value of ratio of IC40 values [20]: −0.10 |
| C=C1[C@@H](O)[C@@H]2O[C@]3(CC[C@H](/C=C/[C@@H](C)[C@@H]4CC(C)=C[C@@]5(O[C@H](C[C@@](C)(O)C(=O)O)CC[C@H]5O)O4)O3)CC[C@H]2O[C@@H]1[C@@H](O)C[C@H](C)[C@H]1O[C@@]2(CCCCO2)CC[C@H]1C [OA, okadaic acid] | 0.18 | −0.19 | −0.08 | 0.08 | 0.13 | 0.04 | −0.52 | 0.00 | 0.00 | 0.16 | 0.12 | 0.09 | 0.00 | 0.00 | 0.00 | 0.12 | 0.12 | −0.02 | 0.00 | 0 | logarithmic value of ratio of IC40 values [19]: 0.08; logarithmic value of ratio of IC40 values [20]: 0.08 |
